# Biological target: Histone deacetylase (Eimeria tenella)
# Assay: Inhibitory activity against histone deacetylase (HDAC) from partially purified extracts of Eimeria tenella protozoal cells
row,Structure (SMILES),IC50 [nM]
1,CCCCCCCC[C@@H]1NC(=O)[C@H]2CCCCN2CC(=O)[C@H]([C@@H](C)CC)NC(=O)[C@H](Cc2cn(OC)c3ccccc23)NC1=O,300
2,CCC(=O)CCCCC[C@@H]1NC(=O)[C@H]2CCCCN2CC(=O)[C@H]([C@@H](C)CC)NC(=S)[C@H](Cc2cn(OC)c3ccccc23)NC1=O,210
3,CC[C@H](C)[C@@H]1NC(=O)[C@H](Cc2cn(OC)c3ccccc23)NC(=O)[C@H](CCCCCP(=O)(OC)OC)NC(=O)[C@H]2CCCCN2CC1=O,850
4,CC[C@H](C)[C@@H]1NC(=O)[C@H](Cc2cn(OC)c3ccccc23)NC(=O)[C@H](CCCCCC(=O)O)NC(=O)[C@H]2CCCCN2CC1=O,30

# These reach a lower IC50. Values come first.
row,IC50 [nM],Structure (SMILES)
1,1,CC[C@H](C)[C@@H]1NC(=O)[C@H](Cc2cn(OC)c3ccccc23)NC(=O)[C@H](CCCCCC(=O)C2CO2)NC(=O)[C@H]2CCCCN2CC1=O (some centres not stated)
2,4,CC[C@H](C)[C@@H]1NC(=O)[C@H](Cc2cn(OC)c3ccccc23)NC(=O)[C@H](CCCCCC(=O)C(C)O)NC(=O)[C@H]2CCCCN2CC1=O (some centres not stated)
3,0.8,CC[C@H](C)[C@@H]1NC(=O)[C@H](Cc2cn(OC)c3ccccc23)NC(=O)[C@H](CCCCCC(=O)OC)NC(=O)[C@H]2CCCCN2CC1=O
